The test system of one series is male dd-strain rats. Put plainly: Acute toxicity test (minimum lethal dose). It counts as in vivo. Conditions: mortality for 7 days. As for the experimental part:
Groups of male dd-strain rats (each group consisting of five rats) weighing 20±1 g were used. The compounds of the present invention were administered orally (po: 0.3 mg/g) or intraperitoneally (ip: 0.1 mg/g). The MLD (minimum lethal dose) was calculated from the mortality for 7 days after the administration to obtain the results given in Table 1.

In series [1] the test system is isolated ileum of guinea-pig. Put plainly: Test for anticholinergic effects on the isolated ileum of guinea-pig (acetylcholine contraction, in vitro). Also on record: species or system guinea-pig (male Hartly-strain). Conditions: Cavia porcellus, 0.05 h; depressing ratio of 80% or more of acetylcholine contraction; compound 3 minutes before; read-out: Anticholinergic activity: MED (minimum effective dose). The essentials:
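Ileum segments from male Hartley guinea-pigs (~250 g), 2-3 cm, in Tyrode's at 32±1° C, aerated. Contraction evoked by acetylcholine (0.1 ml of 10^-3 g/ml), recorded by kymograph, before and 3 minutes after test compound addition.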

In series [2] the test system is isolated ileum of guinea-pig. Put plainly: Test for antihistaminergic effects on the isolated ileum of guinea-pig (histamine contraction, in vitro). Set-up: species or system guinea-pig (male Hartly-strain). Conditions: Cavia porcellus, 0.05 h; depressing ratio of 80% or more of histamine contraction; read-out: Antihistaminergic activity: MED. The essentials: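 Ileum segments from male Hartley guinea-pigs (~250 g) suspended in Tyrode's solution at 32±1 °C, contractions recorded on kymograph. Test compound given 3 min before agonist challenge with 0.1 ml histamine at 5×10^-3 g/l.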

Series [3] has as its system blood platelets (platelet-rich plasma). Put plainly: Test for the inhibition of platelet aggregation (collagen-induced, platelet-rich plasma). Conditions: Oryctolagus cuniculus, Platelet, 0.05 h; depressing ratio of 50% of collagen-induced aggregation; compound 3 minutes before; read-out: Antiplatelet aggregation activity: MED. Format: cell-based, male white rabbits. The essentials:
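Citrated carotid blood from male white rabbits (2–2.5 kg) spun at 1,000 rpm for 15 min to give PRP. Compound added 3 min before collagen, dosed to give 50% aggregation in the presence of 100 γ/ml aspirin; aggregation followed by aggregometer, activity scored as 50% depression versus collagen alone.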

The next series can be described thus: Antiasthmatic activity. Conditions: po; read-out: Antiasthmatic activity: MED. It counts as in vivo.

Here are results for eight compounds from patent publication US4396550A, “Dibenz [b,e] oxepin derivatives” (Kyowa Hakko Kogyo Co., Ltd., priority 1980, dated 1983).

A value given as a limit tells only on which side of the number the result lay.

Take `CCC(C)c1ccc2c(c1)C(NC1CN3CCC1CC3)c1ccccc1CO2` (stereo not drawn) [Compound 51, 2-(1-methyl)propyl-11-(3-quinuclidinyl)amino-6,11-dihydrodibenz[b,e]oxepin]: the results for the “Acute toxicity: MLD (minimum lethal dose)” value (“Acute toxicity: MLD” for short) with male dd-strain rats (ip) and with male dd-strain rats (po) were 100 mg/kg and greater than 300 mg/kg, respectively. In addition, the minimal effective concentration in series [1] amounted to 1 µg/mL; in series [2], 0.3 µg/mL; in series [3] it was 50 µg/mL. Moreover, the minimal effective dose in the series “Antiasthmatic activity” was 50 mg/kg.

As to `CC(C)(C)c1ccc2c(c1)C(NC1CN3CCC1CC3)c1ccccc1CO2` (stereo not drawn) [Compound 52, 2-(1,1-dimethyl)ethyl-11-(3-quinuclidinyl)amino-6,11-dihydrodibenz[b,e]oxepin], the “Acute toxicity: MLD” value with male dd-strain rats (ip) was 100 mg/kg; in the series on male dd-strain rats (po), greater than 300 mg/kg. Moreover, the minimal effective concentration in series [1] amounted to 3 µg/mL; in series [2], 0.3 µg/mL; in series [3], 1 µg/mL. Besides, the minimal effective dose in “Antiasthmatic activity” amounted to 50 mg/kg.

For the compound `Cc1ccc2c(c1)C(NCCN1CCCC1)c1ccccc1CO2` (stereo not drawn) [Compound 58, 2-methyl-11-{2-(1-pyrrolidinyl)ethyl}amino-6,11-dihydrodibenz[b,e]oxepin], the results for the “Acute toxicity: MLD” value in the series with male dd-strain rats (ip) and in the series on male dd-strain rats (po) were greater than 100 mg/kg and 300 mg/kg, respectively. Also, the figures for the minimal effective concentration in series [1], in series [2] and in series [3] were 3 µg/mL, 0.1 µg/mL and 50 µg/mL, respectively. In the series “Antiasthmatic activity”, the minimal effective dose came to 25 mg/kg.

Consider `CCc1ccc2c(c1)C(N1CCN(C)CC1)c1ccccc1CO2` (stereo not drawn) [Compound 66, 2-ethyl-11-(4-methyl-1-piperazinyl)-6,11-dihydrodibenz[b,e]oxepin], for which the “Acute toxicity: MLD” value in the series with male dd-strain rats (ip) is on record as greater than 100 mg/kg; in the series on male dd-strain rats (po), greater than 300 mg/kg. Also, the minimal effective concentration in series [1] is 10 µg/mL; in series [2] it was 1 µg/mL; in series [3], 50 µg/mL. In the series “Antiasthmatic activity”, the minimal effective dose came out at 10 mg/kg.

For the compound `Cc1ccc2c(c1)C(N1CCN(C)CC1)c1ccccc1CO2` (stereo not drawn) [Compound 67, 2-methyl-11-(4-methyl-1-piperazinyl)-6,11-dihydrodibenz[b,e]oxepin], the “Acute toxicity: MLD” value in the series with male dd-strain rats (ip) is greater than 100 mg/kg; with male dd-strain rats (po) it was greater than 300 mg/kg. The figures for the minimal effective concentration in series [1], in series [2] and in series [3] were 10 µg/mL, 0.3 µg/mL and 50 µg/mL, respectively. Further, the minimal effective dose in “Antiasthmatic activity” worked out at 25 mg/kg.

In the case of `COc1ccc2c(c1)C(N1CCN(C)CC1)c1ccccc1CO2` (stereo not drawn) [Compound 68, 2-methoxy-11-(4-methyl-1-piperazinyl)-6,11-dihydrodibenz[b,e]oxepin], the entries for the “Acute toxicity: MLD” value with male dd-strain rats (ip) and with male dd-strain rats (po) were 100 mg/kg and 200 mg/kg, respectively. Further, the minimal effective concentration turned out to be 10 µg/mL in series [1], 3 µg/mL in series [2] and 100 µg/mL in series [3]. For the same compound, in “Antiasthmatic activity”, the minimal effective dose was determined as 100 mg/kg.

In the case of `CN1CCN(C2c3ccccc3COc3ccc(F)cc32)CC1` (stereo not drawn) [Compound 69, 2-fluoro-11-(4-methyl-1-piperazinyl)-6,11-dihydrodibenz[b,e]oxepin], the “Acute toxicity: MLD” value in the series on male dd-strain rats (ip) is greater than 100 mg/kg; in the series with male dd-strain rats (po), 100 mg/kg. Moreover, the minimal effective concentration in series [1] was found to be 3 µg/mL; in series [2], 10 µg/mL; in series [3] it was 100 µg/mL. Also, the minimal effective dose in the series “Antiasthmatic activity” stood at 100 mg/kg.

Consider `CN1CCN(C2c3ccccc3COc3ccc(Cl)cc32)CC1` (stereo not drawn) [Compound 70, 2-chloro-11-(4-methyl-1-piperazinyl)-6,11-dihydrodibenz[b,e]oxepin], for which the “Acute toxicity: MLD” value with male dd-strain rats (ip) was 100 mg/kg; with male dd-strain rats (po), 200 mg/kg. The minimal effective concentration came out at 1 µg/mL in series [1], 0.3 µg/mL in series [2] and 50 µg/mL in series [3]. The minimal effective dose in “Antiasthmatic activity” came to 10 mg/kg.
